Assay results reported in patent publication US20250212902A1, “METHOD AND COMPOSITION FOR IMPROVEMENT OF AGRICULTURAL PRODUCE” (UPL CORPORATION LIMITED, priority 2022, published 2025).

Assays:
grape = assay: Post-harvest bunch weight in grape (Example 7); type: in vivo; conditions: 19 days after harvest, Example 7 Trial 2
Protocol: (§1) 10 applications […] were performed with an interval of 3 days with the 1st application being at inflorescence stage (BBCH 53). Severity of disease was evaluated in at least 20 leaves/plot, prior evaluation was performed before the first application, at 3 days after each application and at 7 and 10 days after the last application. Phytotoxicity (0 to 100%) was evaluated before each spray and at 3 days after each application. Post-harvest bunch weight was evaluated at 19 days after harvest. Control of powdery mildew was recorded as % control. Yield was evaluated as Kg/ha. Post-harvest bunch weight was recorded as g/bunch. […] 10 applications […] were performed with an interval of 3 days with the 1st application being at inflorescence stage (BBCH 53). Severity of disease was evaluated in at least 20 leaves/plot, prior evaluation was performed before the first application, at 3 days after each application and at 7 and 10 days after the last application. Phytotoxicity (0 to 100%) was evaluated before each spray and at 3 days after each application. Post-harvest bunch weight was evaluated at 19 days after harvest. Control of powdery mildew was recorded as % control. Post-harvest bunch weight was recorded as g/bunch.

[1] = test system: powdery mildew (Uncinula necator); assay: Control of powdery mildew in grape; type: in vivo; conditions: Example 7 Trial 2, 10 applications, 3 day interval
Protocol: as §1

O=C([O-])O.[K+] [Potassium bicarbonate, potassium bicarbonate]
Post-harvest bunch weight (g/bunch) (grape): 420.3 g/bunch | % Control of Uncinula necator [1]: 67.7%
